Data taken from patent US20100112561A1, “FLUORESCENT NUCLEOSIDE ANALOGUES” (priority 2006, published 2010).

Experiments:
[1] = biological target: T1, human 2′-deoxycytidine kinase (dCK) (Homo sapiens, UniProt P27707); experiment: spectrophotometric coupled-enzyme kinase assay, dCK; format: biochemical; settings: FIG. 10A
T1 construct: made in house; host or cells: E. coli, pET-14b (Novagen)
Description: (§1) To investigate the kinetic properties of the above-described fNAs in vitro, a pET-based protein overexpression system was established for the production and purification of milligram quantities of individual dNKs. The genes for human 2′-deoxycytidine kinase (dCK) and fruitfly dNK (DmdNK), as well as the thymidine kinase from the bacterium Thermotoga maritime (TmTK) were subcloned into pET-14b (Novagen), an IPTG-inducible protein overexpression system that also introduces a poly-His tag at the target protein's amino terminus. […]
A quantitative measurement of individual enzymes' substrate specificity is possible via the determination of the kinetic parameters KM and kcat. […]
(§2) Experimentally, the kinase-catalyzed phosphotransfer reaction was monitored at 37° C. via a spectrophotometric, couple-enzyme assay (as described in Munch-Petersen, B., Knecht, W., Lenz, C., Sondergaard, L. and Piskur, J. (2000) functional expression of a multisubstrate deoxyribonucleoside kinase from Drosophila melanogaster and its C-terminal deletion mutants. J Bio chem, 275, 6673-6679; Schelling, P., Folkers, G. and Schapozza, L. (2001) A spectrophotometric assay for quantitative determination of kcat of herpes simplex virus type 1 thymidine kinase substrates. Anal Biochem, 295, 82-87, which are hereby incorporated by reference herein). […] The consumption of NADH can be monitored spectrophotometrically at 340 nm. […]

[2] = biological target: T2, 2′-deoxyribonucleoside kinase from Drosophila melanogaster (DmdNK) (Drosophila melanogaster, UniProt Q9XZT6); experiment: spectrophotometric coupled-enzyme kinase assay, DmdNK; format: biochemical; settings: wild type DmdNK, kcat/KM data FIG. 10A/11A, agrees with FACS FIG. 11B
T2 construct: made in house; host or cells: E. coli, pET-14b (Novagen)
T2 sequence (Q9XZT6 1-250): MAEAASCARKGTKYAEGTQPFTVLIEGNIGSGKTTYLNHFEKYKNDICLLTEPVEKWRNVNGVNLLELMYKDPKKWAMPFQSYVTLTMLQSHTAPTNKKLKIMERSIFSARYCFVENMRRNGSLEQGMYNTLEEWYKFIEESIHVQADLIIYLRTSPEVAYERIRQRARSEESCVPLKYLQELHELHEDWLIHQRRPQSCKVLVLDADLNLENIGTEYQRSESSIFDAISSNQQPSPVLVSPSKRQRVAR
Description: To investigate the kinetic properties of the above-described fNAs in vitro, a pET-based protein overexpression system was established for the production and purification of milligram quantities of individual dNKs. The genes for human 2′-deoxycytidine kinase (dCK) and fruitfly dNK (DmdNK), as well as the thymidine kinase from the bacterium Thermotoga maritime (TmTK) were subcloned into pET-14b (Novagen), an IPTG-inducible protein overexpression system that also introduces a poly-His tag at the target protein's amino terminus. Following protein overexpression, the tag enables one-step purification of the corresponding proteins on Ni-affinity resin, yielding enzyme of >95% purity as determined by SDS-PAGE. This protein overexpression system was successfully applied for the listed wild type kinases above, as well as for isolating engineered enzymes.
A quantitative measurement of individual enzymes' substrate specificity is possible via the determination of the kinetic parameters KM and kcat. Consistent with the literature, each kinase will be described by its relative activity for a fNA in comparison to its corresponding NA and thymidine: kcat(fNA)/kcat(NA), as well as by its relative catalytic efficiency: kcat/KM(fNA)/kcat/KM(NA). […]
as §2

[3] = tested on: E. coli KY895 with pDIM-tDmdNK and TOP10 with pBAD-tDmdNK; experiment: fNA accumulation by fluorescence microscopy, bacteria expressing DmdNK; format: cell-based; settings: plasmid-encoded exogenous DmdNK, both strains, FIG. 8
Description: FIG. 8 illustrates the fluorescence microscopy of E. coli KY895 with pDIM-tDmdNK (left) and TOP10 with pBAD-tDmdNK (right) in the presence of 1 (100× magnification; excitation: Hg-lamp at 325 nm). Noticeable in the two images of FIG. 8 is the highly variable fluorescence intensity in the E. coli KY895/pDIM sample, caused by disproportionate expression levels of the lac-promoter system. On the contrary, the arabinose-controlled pBAD system in E. coli TOP10 facilitates steadier kinase expression levels, resulting in a more uniform fluorescence signal.

[4] = biological target: T3, thymidine kinase from Thermotoga maritima (TmTK) (Thermotoga maritima, UniProt Q9WYN2); experiment: kinetic experiments with type-II kinases; format: biochemical
T3 construct: made in house; host or cells: E. coli, pET-14b (Novagen)
Description: as §1, §2

[5] = tested on: E. coli expressing DmdNK from pDIM, pBAD or pET vectors; experiment: flow cytometry (FACS) of E. coli overexpressing DmdNK; format: cell-based; settings: pDIM vector in E. coli KY895, FIG. 9
Protocol: In a typical flow cytometry experiment, bacterial cultures are grown to mid-log phase and protein expression is induced for 4 h, followed by the addition of the fN or fNA to the culture broth. Cells are incubated for another 2 h prior to centrifugation and three wash-cycles with PBS buffer to reduce the fluorescence background. Cultures are then analyzed on a Becton Dickinson FACSVantage SE, equipped with a UV laser.
Several experiments were conducted to validate the design for a FACS-based high-throughput screening system for engineered dNKs. A first set of experiments addressed three main questions: a) what is an appropriate host/expression system for kinases in conjunction with fNAs (FIG. 9), b) are the fluorescent properties of the above-described fNAs sufficient for FACS, and c) what is the dynamic range of this screening system? […] In contrast, both the pET and pBAD system yield populations with a more significant portion of “positives”, cells with 10 to 20-fold higher fluorescence than background.

[6] = tested on: E. coli TOP10 and E. coli KY895; experiment: fNA uptake by fluorescence microscopy, strains without exogenous kinase; format: cell-based; settings: both strains, no exogenous type-I kinase
Protocol: To validate the accumulation of the fluorescent nucleotides inside bacterial cells, a series of fNA-uptake experiments was conducted in two E. coli strains. The E. coli TOP10 (Invitrogen) carries a native type-II thymidine kinase while E. coli KY895 is a thymidine kinase-deficient laboratory strain.

T3 sequence (Q9WYN2 whole entry): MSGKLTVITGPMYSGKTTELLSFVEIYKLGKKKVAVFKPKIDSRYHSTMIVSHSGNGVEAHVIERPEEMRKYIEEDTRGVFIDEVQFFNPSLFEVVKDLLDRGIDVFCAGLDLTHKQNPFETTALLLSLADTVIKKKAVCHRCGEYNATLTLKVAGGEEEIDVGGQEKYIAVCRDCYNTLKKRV
T1 sequence (P27707 whole entry): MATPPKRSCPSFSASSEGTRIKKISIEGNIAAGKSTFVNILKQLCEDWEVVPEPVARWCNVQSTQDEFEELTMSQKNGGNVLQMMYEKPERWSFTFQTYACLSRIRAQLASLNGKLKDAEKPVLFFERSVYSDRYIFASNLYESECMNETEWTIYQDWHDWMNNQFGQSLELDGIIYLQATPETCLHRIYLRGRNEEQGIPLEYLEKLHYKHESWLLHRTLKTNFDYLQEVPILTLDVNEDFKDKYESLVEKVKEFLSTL

| Compound | substrate activity / phosphorylation by dCK [1] | substrate activity / phosphorylation by DmdNK [2] | accumulation of fluorescent probe inside cells [3] | phosphorylation by type-II kinases [4] | fluorescent cell population [5] | fluorescence signal in cells [6] |
| --- | --- | --- | --- | --- | --- | --- |
| Cc1cc2cn([C@H]3C[C@H](O)[C@@H](CO)O3)c(=O)nc2o1 [compound 1, 6-methyl-3-(β-D-2′-deoxyribofuranosyl)furano-[2,3-d]pyrimidin-2-one] | no activity | strong activity and good substrate and good | accumulation of the fluorescent probe inside both strains | no detectable phosphorylation | small subpopulation with fluorescence above background | no fluorescence signal beyond the cellular autofluorescence |
| Cc1cc2cn(C3CC(N=[N+]=[N-])C(CO)O3)c(=O)nc2o1 (centres unmarked) [compound 16, 3-(4-azido-5-(hydroxymethyl)-tetrahydrofuran-2-yl)-6-methylfuro[2,3-d]pyrimidin-2(3H)-one] |  | only background phosphorylation |  |  |  |  |
| Cc1cc2cn(C3CCC(CO)O3)c(=O)nc2[nH]1 (centres unmarked) [compound 25, 3-(5-(hydroxymethyl)-tetrahydrofuran-2-yl)-6-methyl-3H-pyrrolo[2,3-d]pyrimidin-2(7H)-one] |  | no detectable activity |  |  |  |  |
